The values below come from patent US20200407700A1, “COMPOSITIONS OF PARP14 MODULATORS AND/OR MUTANTS AND THERAPEUTIC USE THEREOF” (President and Fellows of Harvard College, priority 2018, published 2020).

Assay [1] has as its system bone marrow derived macrophages (BMDMs). Put plainly: NAD^+ levels in LPS-treated bone marrow derived macrophages (enzyme-coupled luciferase assay). As to conditions: for LPS-induced drop in NAD^+ levels / protection of NAD^+ levels in macrophages exposed to LPS: BMDMs; for LPS-induced drop in NAD^+ levels: 6 hours of treatment, in the presence of LPS. It is filed as cell-based, mouse. The source says: FIG. 2 contains 13 panels, 2A-2M, depicting that PARP14 is necessary for LPS-induced NAD^+ destruction. FIG. 2A-2C show NAD^+ levels in response to LPS in wild-type or (FIG. 2A) CD38KO, (FIG. 2B) SARM1KO, and (FIG. 2C) PARP1KO BMDMs. […] FIGS. 2K and 2L show NAD^+ (2K) and NADH levels (2L) in PARP14KO BMDMs.
FIG. 3 contains 6 panels, 3A-3F, depicting PARP14 catalytic mechanism. […] FIG. 3E depicts NAD^+ levels after treatment with NSC-61610. FIG. 3F depicts NAD^+ levels after treatment with NSC-127133 and LPS.
NAD^+ levels rapidly decline upon LPS-activation in bone marrow derived macrophages (BMDMs). […] NAD^+ and NADH levels recover after about 24 hours (FIG. 1A-1B). […] Using a genetically-encoded fluorescent reporter in RAW264.7 immortalized macrophages (FIG. 1C), it was confirmed that these changes occur in all three major compartments of the cell. Mass spectrometry-based metabolomics in BMDMs were performed which confirmed that an increase in NAD^+ hydrolysis is driving the phenomenon (FIG. 1D-1E). Additional experiments using flux metabolomics in collaboration with Professor Marie Migaud at the University of South Alabama may be used in order to determine the rates of consumption and salvage of NAD^+, before and after treatment with LPS. In such experiments, isotopically-labeled NMN (an NAD^+ precursor) are synthesized with labels on the phosphate, ribose, and nicotinamide groups, which allows tracing of multiple downstream metabolites.

The test system of assay [2] is inflammasome (caspase-1 cleavage). Put plainly: Inflammasome activation measured by Caspase 1 cleavage (Casp-1 p20). In kind it is cell-based. As to conditions: only somewhat reproducible. From the text:
(§1) FIG. 4 contains 5 panels, 4A-4E, depicting that NAD^+ decline promotes inflammasome activation. FIG. 4A-4D show secretion of (FIG. 4A) IL-1β, (FIG. 4B) IL-18, (FIG. 4C) IL-6, and (FIG. 4D) TNF in response to LPS and nigericin, without and with NMN.
One hallmark of inflammasome activation is cleavage of caspase-1 to generate a 20 kD peptide.

In another assay the test system is BMDM. Put plainly: Polar metabolomics on BMDM extracts. It is filed as cell-based, mouse. How it is done: (§2) Polar metabolomics on BMDM extracts treated with LPS, OUL35, and NRH were performed. […] Recently, Prof. Marcia Haigis (HMS) published that Sirt3, an NAD^+-sensor, regulates nucleotide metabolism (Gonzalez Herrera et al., 2018). While an increase in nucleotides could promote DNA synthesis, macrophages are reported to suppress the cell cycle in response to LPS. However, macrophages do upregulate reactive oxygen species (ROS) production for bactericidal purposes in response to LPS, and two purines—hypoxanthine and xanthine—are important for this ROS production via the enzyme xanthine oxidase (XO). With the hypothesis that macrophages increase these metabolites for increased ROS production in mind, PARPi and NRH suppress nigericin-induced ROS production, although this experiment must be repeated (FIG. 12O).

The next assay deals with spleen NAD+ levels. Put plainly: NAD^+ levels in aged spleens after I.P. injection. In kind it is in vivo. The settings on record: 27 month old mice, 20 mg/kg intraperitoneally, 2 hours post-injection. As to the method:
27 month old mice were injected intraperitoneally with 20 mg/kg of OUL35 dissolved in PBS with 40% HP-beta-cyclodextrin and 1% carboxymethylcellulose. Spleens were collected 2 hours post-injection and assayed for NAD+ levels.

The next assay addresses PARP1 (Homo sapiens, UniProt P09874). The settings on record: cited from earlier work.
A further assay relates to PARPs 4, 10, 14, and 16. As to conditions: cited from earlier work.
In assay [3] the test system is poly-ADP-ribose (PAR) levels. In words: Poly-ADP-ribose (PAR) levels in LPS-treated macrophages. In kind it is cell-based. The settings on record: NAD+ repletion. The source says: NMN, which raises levels of NAD^+, can suppress secretion of IL-1β and IL-18. […] The most robust observation seen is a restoration of poly-ADP-ribose (PAR) levels (FIG. 11B). While this is clearly an effect of restoring NAD^+ levels, its significance on macrophage function is unclear. […] Inflammatory gene expression may be altered, but this must be repeated with an increased N-value (FIG. 11D-F).

The subject of assay [4] is reactive oxygen species (ROS) production. In words: Nigericin-induced ROS production in macrophages. In kind it is cell-based. The settings on record: 30 min nigericin treatment; preliminary, must be repeated. As to the method: as §2
In the next assay the test system is LPS induced sepsis. Put plainly: LPS-induced sepsis (I.P. injection of LPS). In kind it is in vivo. The settings on record: mice. As to the method: One common assay to measure inflammation in vivo is with LPS induced sepsis, whereby LPS is injected intraperitoneally, resulting in a lethal cytokine storm. Drugs or mutations that suppress inflammation increase survival. Mice euthanized 6 hours after LPS injection show in increase in PARP14 levels in multiple tissues (FIG. 13A-D). NAD^+ levels fall in multiple tissues, and in at least in spleen, NAD^+ levels can be protected with a co-injection of PARPi and NRH (FIG. 13E).

The next assay concerns elderly mice. The settings on record: cited from earlier work.
Assay [5] relates to secretion of IL-1β, IL-18, IL-6 and TNF. Put plainly: Cytokine secretion in response to LPS and nigericin. In kind it is cell-based.
Excerpt: as §1
IL-1β and IL-18 are unique cytokines in that they require activation of an inflammasome to be processed for release.

The test system of the next assay is influenza. The settings on record: via a different mechanism; cited from earlier work.

Molecules are shown by their SMILES. Entries after “also recorded” stand apart in the source; their conditions may differ.

Sequence of PARP1 (P09874 whole entry, species assumed): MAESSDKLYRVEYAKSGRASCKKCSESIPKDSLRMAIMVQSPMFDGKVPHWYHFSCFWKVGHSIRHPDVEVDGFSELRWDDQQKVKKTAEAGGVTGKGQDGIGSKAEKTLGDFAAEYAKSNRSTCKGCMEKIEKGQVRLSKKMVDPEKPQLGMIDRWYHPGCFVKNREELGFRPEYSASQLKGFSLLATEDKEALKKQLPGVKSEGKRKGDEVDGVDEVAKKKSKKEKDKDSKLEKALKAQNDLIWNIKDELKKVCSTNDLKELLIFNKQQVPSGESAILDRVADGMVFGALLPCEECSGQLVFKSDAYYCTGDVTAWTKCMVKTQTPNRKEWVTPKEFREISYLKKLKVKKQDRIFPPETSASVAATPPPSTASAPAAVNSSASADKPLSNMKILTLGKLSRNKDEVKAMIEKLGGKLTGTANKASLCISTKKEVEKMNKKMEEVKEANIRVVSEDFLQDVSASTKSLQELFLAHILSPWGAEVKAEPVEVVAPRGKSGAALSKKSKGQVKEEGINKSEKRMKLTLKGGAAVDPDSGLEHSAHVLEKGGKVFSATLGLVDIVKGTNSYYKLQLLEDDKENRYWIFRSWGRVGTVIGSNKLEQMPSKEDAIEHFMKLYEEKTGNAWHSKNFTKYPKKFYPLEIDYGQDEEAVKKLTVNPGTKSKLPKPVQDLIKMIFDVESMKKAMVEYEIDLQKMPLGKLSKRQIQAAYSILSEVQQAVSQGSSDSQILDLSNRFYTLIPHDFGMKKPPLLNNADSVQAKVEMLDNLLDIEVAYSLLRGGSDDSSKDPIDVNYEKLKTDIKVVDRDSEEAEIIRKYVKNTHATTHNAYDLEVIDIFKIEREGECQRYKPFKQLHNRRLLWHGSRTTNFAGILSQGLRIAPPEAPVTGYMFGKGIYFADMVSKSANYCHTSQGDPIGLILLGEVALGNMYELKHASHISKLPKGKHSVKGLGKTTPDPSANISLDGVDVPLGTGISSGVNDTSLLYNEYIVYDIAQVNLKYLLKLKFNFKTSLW

For `NC(=O)c1ccc(Oc2ccc(C(N)=O)cc2)cc1` [OUL35], in assay [1], the “LPS-induced drop in NAD^+ levels” value was “blocked the drop” and the “raise NAD^+ levels in activated macrophages, compared with NMN” value (“raise NAD^+ levels … compared with NMN” for short) was “beyond NMN”. Moreover, the “cleavage of caspase-1 (inflammasome activation)” value (“cleavage” for short) in assay [2] is “suppress”. Further, the “metabolite changes induced by LPS” value in the assay on BMDM is listed as “blunt the changes induced by LPS”. In addition, the “NAD^+ levels in aged spleens” value with spleen NAD+ levels is “raises NAD^+ levels”. The “activity against PARP1” value at PARP1 was “no activity”. Also, the “inhibition of PARPs 4, 10, 14, and 16” value in the assay with PARPs 4, 10, 14, and 16 was “inhibitor”.
As to `NC(=O)C1=CN([C@@H]2O[C@H](CO)[C@@H](O)[C@H]2O)C=CC1` [NRH, Nicotinamide riboside hydride], in assay [1], the “protection of NAD^+ levels in macrophages exposed to LPS” value is “protect; also recorded: more potent protectors”. The “raising NAD^+ levels in BMDMs” value in [1] (absence and presence of LPS, after 6 hours) was “extremely potent”. Besides, the “cleavage” value in [2] is recorded as “suppression of inflammasome activation”. Besides, the “poly-ADP-ribose (PAR) levels” value in assay [3] is reported as “restoration”. Also, the “metabolite changes induced by LPS” value in the assay on BMDM is given as “blunt the changes induced by LPS”. The “nigericin-induced ROS production” value in assay [4] is “suppress”. For the same compound, the “NAD^+ levels in spleen” value with LPS induced sepsis (6 hours after I.P. injection of LPS, co-injection) is “protected”. In the assay with LPS induced sepsis (I.P. injection of LPS, vs LPS alone), the survival result is recorded as “moderately increased survival”.
On to `NC(=O)c1ccc[n+]([C@@H]2O[C@H](CO)[C@@H](O)[C@H]2O)c1` [NR, nicotinamide riboside], for which the “metabolism and aspects of ageing” value with elderly mice is “improve metabolism and reverse aspects of ageing”.
With `NC(=O)c1cccc(N)c1` [3-aminobenzimide], in assay [1], the “LPS-induced drop in NAD^+ levels” value is given as “completely blocked” and the “raise NAD^+ levels … compared with NMN” value is listed as “beyond NMN”.
For the compound `CN(C)CC(=O)Nc1ccc2[nH]c(=O)c3ccccc3c2c1` [PJ-34], in [1], the “LPS-induced drop in NAD^+ levels” value is reported as “completely blocked” and the “raise NAD^+ levels … compared with NMN” value is reported as “beyond NMN”. Also, the “cleavage” value in assay [2] is given as “suppress”.
On to `NC(=O)c1ccc[n+]([C@@H]2O[C@H](COP(=O)([O-])O)[C@@H](O)[C@H]2O)c1` [NMN, nicotinamide mononucleotide], for which, in assay [1], the “protection of NAD^+ levels in macrophages exposed to LPS” value is recorded as “slightly protect”. Also, in assay [5], the “secretion of IL-1β and IL-18” value was “suppress”; the “secretion of IL-6 or TNF” value is given as “not”. Further, the “metabolism and aspects of ageing” value with elderly mice was “improve metabolism and reverse aspects of ageing”.
With `CCOc1ccccc1Cl` [NSC-61610], in assay [1], the “LPS-induced drop in NAD^+ levels” value is listed as “able to block the fall” and the “raise NAD^+ levels … compared with NMN” value is “beyond NMN”. For the same compound, the “effect in a model of influenza” value in the assay with influenza is listed as “anti-inflammatory”.
`O=C(O)c1ccccc1-c1ccccc1C(=O)Nc1ccc2c(c1)[nH]c(=O)c1ccccc12` [NSC-127133]: in assay [1], the “LPS-induced drop in NAD^+ levels” value is “able to block the fall” and the “raise NAD^+ levels … compared with NMN” value was “beyond NMN”.
